The data set addresses T1, OAT1 (Solute carrier family 22 member 6) (Homo sapiens, UniProt Q4U2R8).
T1 sequence (Q4U2R8 whole entry): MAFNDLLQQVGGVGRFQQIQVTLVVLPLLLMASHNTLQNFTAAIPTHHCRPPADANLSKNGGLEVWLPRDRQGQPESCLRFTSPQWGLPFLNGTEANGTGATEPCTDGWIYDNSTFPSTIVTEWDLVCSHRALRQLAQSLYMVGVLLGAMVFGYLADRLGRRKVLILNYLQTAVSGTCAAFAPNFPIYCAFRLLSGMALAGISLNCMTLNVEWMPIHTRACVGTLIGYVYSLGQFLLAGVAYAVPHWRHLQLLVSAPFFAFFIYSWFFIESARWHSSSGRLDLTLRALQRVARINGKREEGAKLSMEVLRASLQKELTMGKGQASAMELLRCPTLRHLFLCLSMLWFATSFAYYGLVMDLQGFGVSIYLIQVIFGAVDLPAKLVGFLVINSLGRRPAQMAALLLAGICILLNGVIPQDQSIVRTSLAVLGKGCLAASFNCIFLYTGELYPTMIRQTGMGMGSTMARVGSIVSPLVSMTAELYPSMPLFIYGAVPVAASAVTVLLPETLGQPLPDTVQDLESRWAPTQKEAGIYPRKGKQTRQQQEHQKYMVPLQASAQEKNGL
Nature of the data set: TP_TRANSPORTER: inhibition of Urate uptake (Urate: 300 uM, DIDS: 2000 uM) in OAT1-expressing S2 cells. The data set is classed as functional, cell-based. The settings on record: S2 cells that express OAT1, probe urate (300 uM); read-out: Activity. Also noted: scale not given: the % may be the effect or the level left.

Structures are written as SMILES.

Regarding `O=S(=O)(O)c1cc(N=C=S)ccc1/C=C/c1ccc(NC=S)cc1S(=O)(=O)O`, the activity at 2000 µM came out at 64.2%.

For the origin of these results see ChEMBL document CHEMBL2073941, “TP-search Transporter Database” (Gastroenterology, 1994).
